A value given as a limit tells only on which side of the number the result lay.

By melting point is commonly meant the temperature, or range, at which the solid turns liquid. The compound `CC(C)(C)OC(=O)N1CCN(C(=O)c2ccc(-c3[nH]nc4c3C(=O)c3c(NC(=O)NN5CCOCC5)cccc3-4)s2)CC1` came in with a melting point of 225 to 226 °C.

With `COc1c(C=O)ccc2c1oc1ccccc12`, the melting point fell in the range of 178 to 180 °C.

On to `Cc1cncn1-c1cc(NC(=O)OC(C)(C)C)cc(C(F)(F)F)c1`, for which the melting point was 169 to 171 °C.

`CC(=O)SCCS(C)(=O)=O` displayed a melting point of 57 to 59 °C.

The compound `CCn1c2ccccc2c2cc(C#N)ccc21` showed a melting point of 183 to 185 °C.

The compound `O=C1Nc2ccc(F)c(F)c2C1c1ncnc2c1cnn2C1CCCC1` (centres undefined) showed a melting point greater than 300 °C.

As for `COC(=O)CC=C1CCC2C3CCC4=CC(=O)CCC4(C)C3CCC12C` (centres undefined), the melting point was 149 to 151 °C.

Regarding `COc1ccc2c(c1)C(=O)c1c-2c(Cl)nc2ccccc12`, the melting point lay in the range of 227 to 228 °C.

As for `OCCCCCCC(O)C(c1ccc(Cl)cc1Cl)n1ccnc1` (centres undefined), the melting point lay in the range of 74 to 76 °C.

`COC(=O)c1cc2c(Br)csc2nc1C(=O)OC`: the melting point was 86 to 87.5 °C.

Regarding `CSc1cn(C)c2cc(Cl)sc2c1=O`, the melting point lay in the range of 231 to 234 °C.

Turning to `CC(=O)OC1CSC(Oc2ccc(-c3c(C)n[nH]c3C)nc2)C(OC(C)=O)C1OC(C)=O` (centres undefined), the melting point was 154 °C.

For `Nc1cc(Oc2ccncc2)ccc1[N+](=O)[O-]`, the melting point was in the range of 170 to 175 °C.

`NS(=O)(=O)c1cccc2c1c([N+](=O)[O-])cc1nc(O)c(O)nc12` returned a melting point of 360 °C.

The compound `COc1ccc(Cc2cc(CCNS(=O)(=O)c3ccc(Cl)cc3)cc(CCC(=O)O)c2)cc1` had a melting point of 106 to 108 °C.

For `NC1([C@@H]2CCN(c3ccc4c(=O)c(C(=O)O)cn([C@@H]5C[C@@H]5F)c4c3Cl)C2)CC1`, the melting point lay in the range of 128 to 130 °C.

In turn, `CC1=NC(NC(=O)Nc2cccc(C)c2)C(=O)N(CC(=O)N2CCC(N3CCCCC3)CC2)c2c(C)cccc21` (centres undefined) displayed a melting point of 214 to 217 °C.

`CCCc1c(-c2ccccc2)nc2n1CCc1ccccc1C2OC1CCN(C)CC1` (centres undefined) showed a melting point of 144 °C.

As to `CCC(=O)OC1(C(=O)CCl)C(C)CC2C3CCC4CC(=O)CCC4(C)C3(Cl)C(Cl)CC21C` (centres undefined), the melting point is 164 °C.

`COc1ccc(Cn2c(C)c(Br)c3cnnc(OCc4ccccc4)c32)cc1` registered a melting point of 149 to 152 °C.

For the compound `CNc1nc(-c2cccc(Br)c2)c2cc(OC)c(OC)cc2n1`, the melting point lay in the range of 246 to 248 °C.

Compound `Cc1cc(-c2cc(C(F)(F)F)n3ncc(C(=O)Nc4cccc(S(C)(=O)=O)c4)c3n2)ccc1C(F)(F)F` gave a melting point of 233 °C.

Compound `COc1cc(Cl)c2nc(Cl)nc(O)c2c1OC` gave a melting point of 252 to 253 °C.

Compound `C(=CCN1C(c2ccccc2)CCCC1c1ccccc1)CN1C(c2ccccc2)CCCC1c1ccccc1` (centres undefined) returned a melting point of 197 to 200 °C.

Regarding `C#CCc1c(C)nc2c(NCc3c(C)cccc3NC(=O)OC)cc(NC(C)=O)cn12`, the melting point was in the range of 125 to 128 °C.

For the compound `Cc1ccc(CC(=S)N[C@@H](Cc2ccccc2)C(=O)O)cc1`, the melting point was in the range of 92 to 93 °C.

The compound `CCC1(C)CC(=O)C(C(=O)Nc2cc(C(F)(F)F)cc(C(F)(F)F)c2)C(=O)C1` (centres undefined) yielded a melting point of 72 to 73 °C.

`COC(=NC(=O)N(C)C)NC(=O)NC(C)(C)C` yielded a melting point of 96 to 98 °C.

The compound `O=S(=O)(NCCCn1cncn1)c1ccc(Cl)cc1` had a melting point of 77 to 79 °C.

The compound `CC(C)COC(=O)Nc1cccc(Cn2ccc3cc(C(=O)O)ccc32)c1` registered a melting point of 173 to 176 °C.

Compound `CC12CCC(O)CC1CCC1C2CCC2(C)C1CCC2(SCc1ccccc1)SCc1ccccc1` (centres undefined) registered a melting point of 184 to 185 °C.

As for `CN(C)S(=O)(=O)c1cc2c(c(Cl)c1Cl)OC(C(=O)OCOC(=O)C(C)(C)C)C2` (centres undefined), the melting point lay within 113 to 114 °C.

`NC(=O)c1cnn2cccc2c1NC1CCC(O)CC1` (centres undefined) came in with a melting point of 192 °C.

In the case of `CCC(=O)Cc1nc2ccccc2c(=O)o1`, the melting point is 70 to 72 °C.

The values above are taken from a melting point compilation (Tetko et al.; mined from patent text by program, amines drawn as free bases though some values may be those of a salt).
